Values quoted from earlier work as cited in US20210361700A1 (priority 2020, published 2021).
“Also recorded” adds a separate entry of the source. Where two headings read alike, the source gives them in different places.

Key:
influenza vaccine = conditions: experimental models, including influenza vaccine
[1] = tested on: TLR4 and NF-κB protein levels, ROS, acute tissue injury; conditions: models of lung injury
3CLpro of SARS-CoV = 3CLpro of SARS-CoV (Severe acute respiratory syndrome coronavirus, UniProt P0C6X7)
[2] = tested on: influenza, adenovirus, Ebola, and others; conditions: high affinity, nonspecific binding to viral surface proteins
[3] = tested on: pro-inflammatory cytokines, such as TNF-α, IL-6 and IL-8; conditions: acute viral respiratory infection
3CLpro of MERS = 3CLpro of MERS (Middle East respiratory syndrome-related coronavirus, UniProt K9N7C7)
[4] = tested on: 3C-like protease (3CLpro) activity of COVID-19
[5] = tested on: upper respiratory infection
influenza [6] = conditions: animal models of influenza
rhinovirus = rhinovirus infection in mice (COPD)
[7] = tested on: acute respiratory infections; conditions: N=40; P=0.004; listed as quercetin
[8] = target: Plpro protease of SARS-CoV (Severe acute respiratory syndrome coronavirus, UniProt P0C6X7)
COVID-19 S-protein = COVID-19 S-protein (Severe acute respiratory syndrome coronavirus 2, UniProt P0DTC2)
[9] = tested on: respiratory syndrome virus-1 vaccine; conditions: large mammal model
SARS-CoV ACE2 receptor = conditions: studies with SARS-CoV; listed as quercetin
[10] = tested on: acute respiratory infections; conditions: for colds: secondary analysis, older adults
[11] = tested on: hepatitis B and tetanus vaccines; conditions: for antibody titer / antibody response to vaccines: in vivo
strep pneumonia = conditions: old mice; by reducing neutrophil migration and inflammatory cytokines
T cell function = conditions: for T cell function in older adults: supplementation
influenza [12] = tested on: influenza
[13] = tested on: vascular endothelial function; conditions: meta-analyses of randomized controlled trials
[14] = tested on: acute respiratory infections; conditions: for lower respiratory infection: zinc supplementation, older adults
[15] = target: RNA-dependent RNA polymerase of SARS-CoV (Severe acute respiratory syndrome coronavirus, UniProt P0C6X7)
[16] = tested on: common cold (often caused by coronaviruses); conditions: short-term zinc supplementation at onset of symptoms; 17 RCTs pooled; 95% CI 0.81 to 2.50; listed as zinc
[17] = subset of subjects 40+ years (N=325), secondary analysis

3CLpro of MERS, sequence (K9N7C7 3248-3553 limits assumed): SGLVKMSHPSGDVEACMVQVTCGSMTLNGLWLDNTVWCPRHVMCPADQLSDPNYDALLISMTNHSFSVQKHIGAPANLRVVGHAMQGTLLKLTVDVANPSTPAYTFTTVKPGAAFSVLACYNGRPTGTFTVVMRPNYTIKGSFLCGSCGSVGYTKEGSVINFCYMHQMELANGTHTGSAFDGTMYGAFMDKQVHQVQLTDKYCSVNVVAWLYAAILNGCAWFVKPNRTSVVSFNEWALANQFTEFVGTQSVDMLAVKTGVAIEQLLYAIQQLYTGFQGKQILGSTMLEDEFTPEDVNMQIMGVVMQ

Compound: O=C(O[C@@H]1Cc2c(O)cc(O)cc2O[C@@H]1c1cc(O)c(O)c(O)c1)c1cc(O)c(O)c(O)c1 [EGCG, epigallocatechin gallate]
- biomarkers of endothelial dysfunction such as ICAM-1 and VCAM-1 (endothelial cells): lowers
- endothelin-1 production (endothelial cells; endothelial cells): reduces
- nitric oxide (NO) release (endothelial cells; endothelial cells): induces
- excessive endothelial oxidative stress (endothelial cells; through effects on the Nrf2/HO-1 pathway): reduces
- immune response to vaccination (influenza vaccine): potentiated
- TLR4 and NF-κB protein levels, ROS, acute tissue injury [1]: Suppresses inflammatory
- OR, clinically diagnosed influenza infection (colds or influenza; 95% CI=0.07-0.76): 0.25
- HR, days free from influenza infection (colds or influenza; 95% CI=0.09-0.84): 0.27
- reduced clinically diagnosed influenza infection (colds or influenza; in vivo): 75%
- reduced days free from influenza infection (colds or influenza; in vivo): 73%
- inhibition of 3CLpro of SARS-CoV (3CLpro of SARS-CoV): Inhibits the (3CL^pro) activity
- infectivity of a wide range of viruses [2]: Inhibits infectivity of a wide
- pro-inflammatory cytokines [3]: down-regulates; also recorded: Down-regulatcs pro-

Compound: O=c1c(O)c(-c2ccc(O)c(O)c2)oc2cc(O)cc(O)c12 [Quercetin, quercetin]
- effects in vitro on endothelial cell pathways (endothelial cells; in vitro): several beneficial effects
- inhibition of 3CLpro of MERS (3CLpro of MERS): inhibits
- inhibition of 3CLpro activity of COVID-19 [4]: Inhibits the 3C-like protease
- effect on rates of upper respiratory infections ([5]; overall, N=1,002): no overall significant effect
- reduced duration of upper respiratory infection (total sick days) [5, 17]: (−31%) in a secondary analysis
- reduced severity of upper respiratory infection (symptom severity) [5, 17]: severity (−36%) and total sick days
- inhibition of 3CLpro of SARS-CoV (3CLpro of SARS-CoV): inhibits
- superoxide radical formation, lung pathology, overall risk of infection induced by influenza (influenza [6]): Reduces superoxide
- viral replication and risk of acute infection (influenza [6]): inhibits
- cytokine storm / inflammation and lung injury (rhinovirus): inhibits cytokine storm and reduces lung injury
- incidence of acute respiratory infections [7]: significantly reduced
- inhibition of Plpro protease of SARS-CoV [8]: inhibits
- antagonist of S-protein binding to host ACE2 receptor, computer modeling (COVID-19 S-protein): other compounds as a top
- antagonist of S-protein binding to host ACE2 receptor, computer modeling (COVID-19 S-protein; listed as quercetin): top potential antagonist
- response to respiratory syndrome virus-1 vaccine [9]: improves
- binding to ACE2 receptor / antagonism of S-protein binding (SARS-CoV ACE2 receptor): binds

Compound: Vitamin E
- risk of total acute respiratory infections ([10]; nursing home residents): reduced the risk
- colds [10]: Decreased colds in older adults
- colds ([10]; listed as vitamin E): reduced the risk
- pneumonia ([10]; subset of nursing home residents with polymorphism): Decreased pneumonia in a subset
- in vivo delayed-type hypersensitivity skin response [11]: improves
- antibody titer / antibody response to vaccines [11]: increase; also recorded: improves
- survival from strep pneumonia infection (strep pneumonia): Increases survival from
- cell-dividing and IL-producing capacities of naive T cells (T cell function; naive T cells, but not memory T cells): increased
- T cell function in older adults (T cell function): increases
- survival in viral pneumonia (influenza [12]; mouse, in vivo): increases survival
- viral load in viral lung infections (influenza [12]; mouse, in vivo): Reduces viral load in viral
- excessive lung inflammatory responses / inflammatory cytokine production (influenza [12]; viral infection, influenza): dampens; also recorded: Reduces inflammatory
- vascular endothelial function [13]: improve

Compound: zinc
- acute respiratory infections in the elderly ([14]; double-blind, placebo controlled trial): reduced
- lower respiratory infection [14]: adults and reduces lower
- lower respiratory infection ([14]; listed as zinc): reduces
- antibody titer / antibody response to vaccines [11]: increase; also recorded: restores
- inhibition of RNA-dependent RNA polymerase [15]: Inhibits the RNA-dependent
- reduced days of illness [16]: -1.65 days
- T cell function in older adults (T cell function): Increases T cell function in older
- T cell function in older adults (T cell function; listed as zinc): increases
- inflammation (inflammation): Reduces inflammation.
